Where “and” joins values, the source holds several entries; their conditions need not be identical. Equal entries are not always repeated.
Legend:
[1] = test system: human plasma deficient of FXII; experiment: APTT clotting assay, FXII-deficient plasma; type: biochemical
Description: For the PT assay, thromboplastin-D was reconstituted according to the manufacturer’s directions and warmed to 37 °C. […] After incubation for 4 min at 37 °C, clotting was initiated by adding 100 μL of prewarmed 25 mM CaCl2 and the time to clotting was noted. […] To determine the in vitro effect on the APTT of deficient human plasmas, the APTT assay was repeated, using human plasmas deficient of factor VII (FVII), factor IX (FIX), FXI, or factor XII (FXII). […] The positive control used in APTT and PT assays was rivaroxaban, a clinically used FXa inhibitor. Under the conditions reported, rivaroxaban doubled the APTT and PT at concentrations of 0.123 ± 0.003 µM and 0.193 ± 0.043 µM, respectively.

human plasmin [2] = biological target: T1, human plasmin (Homo sapiens, UniProt P00747); experiment: In vitro plasmin-mediated clot lysis (fibrinolysis) assay; type: biochemical; settings: rate of clot lysis over 5–100 min, pH 7.4, 25 °C
Description: The method followed here was similar to that reported earlier. This in vitro experiment was conducted in 96-well platform in pH 7.4 buffer at 25 °C. The clot was generated by the addition of 80 µL of a solution of human thrombin (2.5 µg/mL) in 20 mM TrisHCl buffer containing 10 mM CaCl2 to 60 µL of a solution of fibrinogen (10 mg/mL) and FXIIIa (2 µg/mL) in 20 mM TrisHCl buffer containing 10 mM CaCl2. The resulting clot was stabilized for 15 min at 25 °C. The absorbance was then measured at 405 nm and was ~0.98 across all wells. […] Finally, 5 µL of human plasmin (stock of 1.6 µM) in 20 mM TrisHCl buffer of pH 7.4 containing 2.5 mM CaCl2 and 100 mM NaCl was added to each well and the A405 of each well was recorded over more than 340 min at various time intervals. […] (1) Y=Y0+YM−Y0/1+10^(log[I]0−logIC50)(HS)

human α-thrombin = biological target: T2, human α-thrombin (Homo sapiens, UniProt P00734); experiment: Thrombin chromogenic substrate hydrolysis assay; type: biochemical
T2 construct: purchased Haematologic Technologies, Inc
Description: (§1) Direct inhibition of human FXa and α-thrombin of the common coagulation pathway and human plasmin of the fibrinolysis pathway were measured using the corresponding chromogenic substrate hydrolysis assays at 37 °C and pH 7.4, as reported earlier using the 96-microplate platform. […] After 10 min incubation, 5 µL Spectrozyme FXa (5 mM stock conc.) was rapidly added and the residual activity of FXa was measured from the initial rate of increase in absorbance at 405 nm. […] The concentration vs effect curve was constructed using logistic Equation (1) from which the potency (IC50) and efficacy (ΔY) of inhibition were also obtained.
For thrombin and plasmin, the assays were performed using substrates appropriate for each enzyme (Spectrozyme TH for thrombin and Spectrozyme PL for plasmin) under conditions closest to the physiological condition. The KM of the substrate for its enzyme was used to identify the concentration of the substrate to be used for inhibition studies. […] After 10 min incubation, 5 µL Spectrozyme TH (1.0 mM stock conc.) was rapidly added and the residual activity of thrombin was measured from the initial rate of increase in absorbance at 405 nm. […] After 10 min incubation, 5 µL Spectrozyme PL (1.0 mM stock conc.) was rapidly added and the residual activity of plasmin was measured from the initial rate of increase in absorbance at 405 nm. […]

human FXa = human FXa (Homo sapiens, UniProt P00742); experiment: FXa chromogenic substrate hydrolysis assay; type: biochemical; settings: pH 7.4, 37 °C
Description: as §1

FXIa = biological target: T3, FXIa (Homo sapiens, UniProt P03951); experiment: FXIa chromogenic substrate hydrolysis assay; type: biochemical
T3 construct: purchased Haematologic Technologies, Inc; host or cells: plasma
Description: Direct inhibition of the human coagulation transglutaminase FXIIIa was also studied using a fluorescence-based transglutamination assay as reported in the literature.
After 10 min incubation, 5 µL FXIa substrate (6.9 mM stock concentration) was rapidly added and the residual FXIa activity was measured from the initial rate of increase in absorbance at 405 nm. Assays were performed in similar fashion with trypsin and chymotrypsin. Stock concentrations used were 18.9 µg/mL (trypsin) and 22.7 mM (S-2222) for bovine trypsin assay (final volume was 200 µL) and 2 µg/mL (chymotrypsin) and 16.2 mM (N-Succinyl-Ala-Ala-Pro-Phe-p-nitroanilide) for bovine chymotrypsin assay (final volume was 200 µL). The buffer used for FXIa, trypsin, chymotrypsin assays was 50 mM Tris-HCl buffer, pH 7.4, containing 150 mM NaCl, 2.5 mM CaCl2, 0.1% PEG8000, and 0.02% Tween80. Neutrophil elastase inhibition assay was performed in a 96-well plate with a final volume of 100 µl with 0.125 M 4-(2-hydroxyethyl)-1-piperazineethanesulfonic acid (HEPES) buffer, pH 7.4 containing 0.125% Triton-X 100, as reported earlier. […] After incubation, 3 µL neutrophil elastase substrate (S-1384; 25 mM stock conc.) was rapidly added and the residual enzyme activity measured from the initial rate of increase in the absorbance at 405 nm.

human plasmin [3] = biological target: T1, human plasmin; experiment: Michaelis-Menten kinetics of Spectrozyme PL hydrolysis by plasmin; type: biochemical; settings: for VMAX of Spectrozyme PL hydrolysis: pH 7.4, 37 °C
Description: The initial rate of Spectrozyme FXa hydrolysis by human FXa (87 nM) or that of Spectrozyme PL hydrolysis by human plasmin (120 nM) was monitored from the linear increase in absorbance at 405 nm corresponding to less than 10% consumption of the substrate. […] The data were fitted by Michaelis-Menten Equation (2) to determine KM (substrate affinity to the enzyme) and VMAX (maximum velocity of enzyme reaction). (2) Vi=VMAX×[S]/KM+[S]

clotting times = settings: cited from earlier work
[4] = cited from earlier work
[5] = parenteral administration, patients

Sequence of human FXa (P00742 235-488 limits assumed): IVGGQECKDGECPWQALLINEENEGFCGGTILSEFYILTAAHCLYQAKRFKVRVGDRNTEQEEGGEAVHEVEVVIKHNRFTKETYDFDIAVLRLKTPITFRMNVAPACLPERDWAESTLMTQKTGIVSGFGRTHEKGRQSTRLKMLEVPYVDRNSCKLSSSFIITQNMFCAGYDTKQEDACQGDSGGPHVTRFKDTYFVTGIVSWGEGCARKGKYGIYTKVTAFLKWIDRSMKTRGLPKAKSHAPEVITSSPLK
Sequence of human FXa (P00742 41-179 partner limits assumed): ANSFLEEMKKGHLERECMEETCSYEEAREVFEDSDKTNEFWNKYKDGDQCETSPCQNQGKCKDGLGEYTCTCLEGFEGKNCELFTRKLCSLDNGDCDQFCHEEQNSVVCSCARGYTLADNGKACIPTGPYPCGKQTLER
T1 sequence (P00747 581-810 limits assumed): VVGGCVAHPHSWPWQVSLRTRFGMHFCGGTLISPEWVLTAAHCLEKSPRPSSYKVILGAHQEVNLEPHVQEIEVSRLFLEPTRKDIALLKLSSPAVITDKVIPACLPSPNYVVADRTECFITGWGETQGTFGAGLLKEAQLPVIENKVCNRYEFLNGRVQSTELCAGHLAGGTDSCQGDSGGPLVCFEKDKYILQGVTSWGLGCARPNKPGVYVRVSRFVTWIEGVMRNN
T1 sequence (P00747 97-580 partner limits assumed): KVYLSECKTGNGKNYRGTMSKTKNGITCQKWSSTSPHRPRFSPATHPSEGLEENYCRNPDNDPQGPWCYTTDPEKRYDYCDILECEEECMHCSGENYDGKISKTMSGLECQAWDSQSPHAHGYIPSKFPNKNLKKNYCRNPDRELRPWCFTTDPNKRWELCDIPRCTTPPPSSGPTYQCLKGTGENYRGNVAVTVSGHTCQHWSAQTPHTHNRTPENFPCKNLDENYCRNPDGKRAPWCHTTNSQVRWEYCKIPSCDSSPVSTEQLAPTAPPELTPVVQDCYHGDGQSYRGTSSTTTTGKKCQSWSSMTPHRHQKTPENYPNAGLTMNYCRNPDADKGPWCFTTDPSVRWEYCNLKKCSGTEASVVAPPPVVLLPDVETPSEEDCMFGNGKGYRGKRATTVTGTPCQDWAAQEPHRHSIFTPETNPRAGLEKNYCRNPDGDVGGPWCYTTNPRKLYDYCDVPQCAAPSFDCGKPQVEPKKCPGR
T3 sequence (P03951 388-625 limits assumed): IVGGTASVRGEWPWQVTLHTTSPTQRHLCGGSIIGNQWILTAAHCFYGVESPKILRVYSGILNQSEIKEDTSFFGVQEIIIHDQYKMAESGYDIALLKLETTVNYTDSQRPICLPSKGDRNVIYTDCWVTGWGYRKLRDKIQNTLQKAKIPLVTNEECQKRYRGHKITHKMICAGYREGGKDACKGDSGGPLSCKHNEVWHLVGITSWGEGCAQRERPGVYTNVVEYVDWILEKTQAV
T3 sequence (P03951 19-387 partner limits assumed): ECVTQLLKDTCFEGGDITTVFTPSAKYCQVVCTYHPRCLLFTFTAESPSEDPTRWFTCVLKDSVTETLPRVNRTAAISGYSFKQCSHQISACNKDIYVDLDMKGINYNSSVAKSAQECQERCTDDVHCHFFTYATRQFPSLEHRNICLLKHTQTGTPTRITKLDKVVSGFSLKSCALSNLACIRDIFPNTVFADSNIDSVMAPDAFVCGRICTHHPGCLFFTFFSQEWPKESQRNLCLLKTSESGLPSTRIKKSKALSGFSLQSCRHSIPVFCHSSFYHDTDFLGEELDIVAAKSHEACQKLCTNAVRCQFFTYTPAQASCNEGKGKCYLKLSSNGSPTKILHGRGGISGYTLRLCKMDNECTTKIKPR

SMILES: N=C(N)c1ccc(OCCCCCOc2ccc(C(=N)N)cc2)cc1 [pentamidine isethionate, 4,4′-(pentane-1,5-diylbis(oxy))-dibenzimidamide]
- APTTEC2×, concentration to double clotting time [1]: 27.05 ± 6.05 µm
- HS (Hill slope) of clot lysis inhibition (human plasmin [2]): 1.2 ± 0.7
- efficacy (ΔY) of clot lysis inhibition (human plasmin [2]): ~ 58%
- IC50 (human plasmin [2]; read-out: IC50 of fibrinolysis (clot lysis) inhibition): ~3.6 µM and 3.6 µM
- IC50 (human α-thrombin; Thrombin, pH 7.4, 37 °C): > 100 µM
- inhibition at 100 µM (human α-thrombin; thrombin, at 100 µM (highest concentration tested)): < 40%
- HS (human FXa): 0.97 ± 0.07
- IC50 (human FXa): ~10 µM and 10.4 µM
- ∆Y (efficacy) (human FXa): 101.6 ± 2.9%
- ∆Y (efficacy) (human FXa; listed as pentamidine): ~ 100%
- inhibition at 100 µM (FXIa; at 100 µM (highest concentration tested)): < 40%
- IC50 (FXIa; pH 7.4): > 100 µM
- VMAX of Spectrozyme PL hydrolysis (human plasmin [3]; 10 µM pentamidine isethionate): 78.7 ± 2.0 mAU/min
- VMAX of Spectrozyme PL hydrolysis (human plasmin [3]; 20 µM pentamidine isethionate): 88.4 ± 1.0 mAU/min
- VMAX of Spectrozyme PL hydrolysis (human plasmin [3]; 50 µM pentamidine isethionate): 92.9 ± 3.2 mAU/min
- VMAX of Spectrozyme PL hydrolysis (human plasmin [3]; 100 µM pentamidine isethionate): 90.9 ± 6.5 mAU/min
- type of inhibition of plasmin (human plasmin [3]; Michaelis-Menten kinetics): competitively inhibits
- increase of KM for Spectrozyme PL (human plasmin [3]; inhibitor 100 μM vs absence): ~ 13.9 fold
- concentration that prolongs clotting times (clotting times): greater than 8.4 µM
- anemia, incidence [4, 5]: 1%
- leukopenia, incidence [4, 5]: 10%
- thrombocytopenia, incidence [4, 5]: 3%
- blood clot formation, share of treated patients ([4]; treated patients): less than 1%

From publication PMC6600542 (Molecules, 2019)
